Assay results taken from BindingDB's records for doi:10.1021/jm00384a016 (1987).
pKi: −log10 of the molar value.

Target: T1, Adenosine receptor A1 (Rattus norvegicus, UniProt P25099)
T1 sequence (P25099 whole entry): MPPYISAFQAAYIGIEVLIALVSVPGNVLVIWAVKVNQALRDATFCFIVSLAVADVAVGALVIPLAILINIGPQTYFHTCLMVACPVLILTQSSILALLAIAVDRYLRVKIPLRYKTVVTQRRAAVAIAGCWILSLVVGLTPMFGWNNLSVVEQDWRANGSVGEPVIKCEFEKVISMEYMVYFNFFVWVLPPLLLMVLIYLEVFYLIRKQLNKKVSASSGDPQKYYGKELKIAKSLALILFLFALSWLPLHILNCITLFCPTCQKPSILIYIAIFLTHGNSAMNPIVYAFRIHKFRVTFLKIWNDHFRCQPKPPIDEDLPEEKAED
Assay: Binding affinity against adenosine A1 receptor in rat brain membrane using N6-[3H]cyclohexyladenosine

`CC(Sc1nc(SC(C)C(N)=O)c2cnn(-c3ccccc3)c2n1)C(N)=O` (stereo unspecified) [2-[6-(1-Carbamoyl-ethylsulfanyl)-1-phenyl-1H-pyrazolo[3,4-d]pyrimidin-4-ylsulfanyl]-propionamide] showed a pKi of 6.43.
